Source: patent US6806230B1, “Pyrimidine derivatives and herbicides containing them” (Kumiai Chemical Industry Co., Ltd., priority 1999, dated 2004)

Legend:
Assay type in all cases: in vivo
barnyard grass (Eo) [1] = assay: Test Example 1: herbicidal effects by flooded paddy field treatment; design: herbicidal effects, Eo (barnyard grass):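 0-5 growth inhibition grade; 5 = over 90%; 4 = 70-90%; 3 = 50-70%; 2 = 30-50%; 1 = 10-30%; 0 = under 10%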; conditions: for herbicidal effects, Eo (barnyard grass): dose 100 g active ingredient per 10 ares, examined on the 21st day after treatment, standards of Table 44;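 as to Herbicidal effect index, Eo: 0-5 growth inhibition grade; 5 = over 90%; 4 = 70-90%; 3 = 50-70%; 2 = 30-50%; 1 = 10-30%; 0 = under 10%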
Method in brief: (§1)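 Seeds sown in puddled paddy soil and flooded to 3 cm. Next day, a water-diluted wettable powder was dripped onto the water surface at 100 g active ingredient per 10 ares. Plants were grown in a greenhouse, and herbicidal effect was scored against a rating standard 21 days after treatment.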

monochoria (Mo) [2] = assay: as above; design: herbicidal effects, Mo (monochoria):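 0-5 growth inhibition grade; 5 = over 90%; 4 = 70-90%; 3 = 50-70%; 2 = 30-50%; 1 = 10-30%; 0 = under 10%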; conditions: for herbicidal effects, Mo (monochoria): dose 100 g active ingredient per 10 ares, examined on the 21st day after treatment, standards of Table 44
Method in brief: as §1

barnyard grass (Ec) = assay: Test Example 2: herbicidal effects by upland soil treatment; design: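 0-5 growth inhibition grade; 5 = over 90%; 4 = 70-90%; 3 = 50-70%; 2 = 30-50%; 1 = 10-30%; 0 = under 10%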; conditions: dose 100 g active ingredient per 10 ares, examined on the 21st day after treatment, standards of Table 44
Method in brief: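 Pre-emergence test: barnyard grass and green foxtail sown in upland soil, then soil surface sprayed with wettable-powder formulation at 100 g active ingredient per 10 ares (100 l per 10 ares). Grown in greenhouse; herbicidal effect scored on a rating scale 21 days after treatment.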

green foxtail (Se) = assay: as above; conditions: dose 100 g active ingredient per 10 ares, examined on the 21st day after treatment, standards of Table 44;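 also: 0-5 growth inhibition grade; 5 = over 90%; 4 = 70-90%; 3 = 50-70%; 2 = 30-50%; 1 = 10-30%; 0 = under 10%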
Description: In a 80 cm^2 plastic pot, upland soil was filled, and seeds of barnyard grass (Ec) and green foxtail (Se) were sown and covered with soil. A wettable powder prepared in accordance with Formulation Example 1 was diluted with water and uniformly applied to the soil surface by means of a small size spray at a rate of 100 l per 10 ares, so that the dose of the active ingredient would be 100 g per 10 ares. Thereafter, cultivation was carried out in a green house, and on the 21st day after the treatment, the herbicidal effects were examined in accordance with the standards as identified in Table 44.

barnyard grass (Eo) [3] = assay: Test Example 4: selectivity for a crop plant by flooded paddy field treatment; design: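 0-5 growth inhibition grade; 5 = over 90%; 4 = 70-90%; 3 = 50-70%; 2 = 30-50%; 1 = 10-30%; 0 = under 10%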; conditions: barnyard grass, dose 25 gai/10a, 21st day after treatment, index per Table 44
Method in brief: (§2)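 Paddled paddy soil in pots sown with barnyard grass and monochoria, with second-leaf-stage rice transplanted, under 3 cm of water. Next day a diluted wettable powder was dripped onto the water at 25 g active ingredient per 10 ares; effects scored on a rating scale 21 days later in a greenhouse.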

monochoria (Mo) [4] = assay: as above; design: scale not given here; conditions: monochoria, dose 25 gai/10a, 21st day after treatment, index per Table 44
Method in brief: as §2

rice (Or) = assay: as above; design: scale not given here; conditions: rice transplanted at second leaf stage, dose 25 gai/10a, 21st day after treatment, index per Table 44
Method in brief: as §2

[5] = dose 100 gai/10a, examined on 21st day after treatment, index 0-5 per Table 44
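For Herbicidal effect index, Mo in this document: 0-5 growth inhibition grade; 5 = over 90%; 4 = 70-90%; 3 = 50-70%; 2 = 30-50%; 1 = 10-30%; 0 = under 10%.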

SMILES | Herbicidal effect index, Eo (barnyard grass (Eo) [1]; [5]) | Herbicidal effect index, Mo (monochoria (Mo) [2]; [5]) | herbicidal effects, Ec (barnyard grass) (barnyard grass (Ec)) | herbicidal effects, Se (green foxtail) (green foxtail (Se)) | Eo (herbicidal effect index) (barnyard grass (Eo) [3]) | Mo (herbicidal effect index) (monochoria (Mo) [4]) | Or (herbicidal effect index on crop) (rice (Or)) | herbicidal effects, Eo (barnyard grass) (barnyard grass (Eo) [1]) | herbicidal effects, Mo (monochoria) (monochoria (Mo) [2])
CC(Oc1ccc(Cl)cc1)C(=O)N(C)C(c1cncnc1C(F)(F)F)C(C)C (mixture of isomers) [Compound 1-116] | 5 | 5 | 5 | 4 | 5 | 5 | 0 | – | –
CC(C)C(c1cncnc1C(F)(F)F)N(C)C(=O)Cc1ccc(Cl)c(F)c1 (racemic) [1-180] | – | – | 5 | 5 | 5 | 5 | 1 | 5 | 5
CCCN(C(=O)Cc1ccc(F)cc1)C(c1cncnc1C(F)(F)F)C(C)C (racemic) [1-181] | – | – | 5 | 5 | 5 | 5 | 1 | 5 | 5
CC(C)C(c1cncnc1C(F)(F)F)N(C)C(=O)CSc1ccccc1 (racemic) [1-182] | – | – | 5 | 5 | 5 | 5 | 1 | 5 | 5
CC(c1cncnc1C(C)(C)C)N(C)C(=O)Cc1ccc(Cl)cc1 (racemic) [1-190] | – | – | 4 | 4 | 5 | 5 | 0 | 5 | 5
Cc1ccc(CC(=O)N(C)C(c2ccccc2)c2cncnc2C(F)(F)F)cc1 (racemic) [1-197] | – | – | 5 | 5 | 5 | 5 | 0 | 5 | 5
CN(C(=O)Cc1ccc(Cl)cc1)C(c1cccs1)c1cncnc1C(F)(F)F (racemic) [1-200] | – | – | 5 | 5 | 5 | 5 | 1 | 5 | 5
CN(C(=O)Cc1ccccc1)C(c1ccc(F)cc1)c1cncnc1C(F)(F)F (racemic) [1-217] | – | – | 5 | 5 | 5 | 5 | 1 | 5 | 5
CN(C(=O)Cc1ccc(Cl)cc1)C(c1ccc(F)cc1)c1cncnc1C(F)(F)F (racemic) [1-219] | – | – | 5 | 5 | 5 | 5 | 1 | 5 | 5
Cc1ccc(C(c2cncnc2C(F)(F)F)N(C)C(=O)Cc2ccccc2)cc1 (racemic) [1-225] | – | – | 5 | 5 | 5 | 5 | 0 | 5 | 5
Cc1ccc(C(c2cncnc2C(F)(F)F)N(C)C(=O)Cc2ccc(F)cc2)cc1 (racemic) [1-226] | – | – | 5 | 4 | 5 | 5 | 1 | 5 | 5
